Columns and labels:
[1] = In vitro stability in rat serum; assay type: in vitro ADME; conditions: 5% rat serum, 20 mM phosphate pH 7.4, 37 °C, 10 µM, HPLC A280, n = 2–3
Description: At various time points (0, 30, 90, 270, and 1410 min), 180 µl of samples were quenched with 10 µl 10% TFA and 20 µl 100% ACN. Samples were centrifuged and kept on ice. The amount of full-length peptides in the serum was analyzed using a C12 column (C12 RP 250 × 4.60 mm column, Phenomenex) on a JASCO HPLC system and applying a gradient of 10–90% ACN in 0.1% TFA for 45 min. Peptides were detected at 280 nm. A280 areas in chromatograms of the corresponding GAL-(1–15) and M89b full-length peptide peaks were used to determine the amount of peptide left after incubation with 5% rat serum at the different time points. Peptide peaks were determined using JASCO-Borwin Chromatography software (v1.50).

[2] = In vitro stability in brain plasma; assay type: in vitro ADME, rat; conditions: 1% Sprague dawley rat brain plasma, 200 mM phosphate pH 7.4, 37 °C, 10 µM; after 1 h; HPLC A280; n=3
Description: The method to study the stability of peptides in brain plasma is described in the Supplementary material. […]
receptor-2-selective agonist reduces acute food intake
Anneke Kuipers1, Márta Balasko2, Erika Pétervári2, Andreas Koller3,4, Susanne M.
Brunner3,4, Gert N. Moll1,5, Barbara Kofler 3*
In vitro stability in brain plasma
Sprague dawley rat brain lyophilized powder was purchased from MyBioSource (San Diego, USA). One gram brain powder was reconstituted in 10 ml PBS, 0.5 ml 2 M Tris (pH=8), 100 µl Triton X -100 and 10 mg SDS. The solution was centrifuged and the supernatant was collected, aliquoted and stored at -20 °C until usage. To assess the stability, 10 µM GAL-(1-15) and 10 µM M89b were incubated in 1% brain plasma buffered with 200 mM phosphate buffer (pH 7.4) at 37°C for up to 6 hours. At various time points […]
20 µl 100% ACN. Samples were centrifuged and kept on ice. Full-length peptides were quantified by using a C12 column (C12 RP 250 x 4.60 mm column, Phenomenex) on a JASCO HPLC system and applying a gradient of 20 -90% ACN in 0.1% TFA for 30 minutes.
Peptides were detected at 280 nm. A280 areas in chromatograms of the corresponding GAL-(1-15) and M89b full-length peptide peaks were used to determine the amount of peptide left after incubation with cerebrospinal fluid at the different time points. Peptide peaks were determined using JASCO-Borwin Chromatography software (v1.50).

[3] = In vitro stability in cerebrospinal fluid; assay type: in vitro ADME; conditions: cerebrospinal or other body fluid; pooled male Wistar Hannover rat cerebrospinal fluid, 37 °C; 4 µl 0.50 mM peptide + 10 µl CSF; after 4 h; HPLC A280; n = 2–3; read-out: Peptide retrieved in CSF
Description: Pooled male Wistar Hannover rat cerebrospinal fluid was purchased from BioIVT (West Sussex, UK). Stability of peptides was analyzed by incubation of 4 µl 0.50 mM GAL-(1–15) with 10 µl cerebrospinal fluid or 6 µl 0.33 mM M89b with 10 µl cerebrospinal fluid at 37 °C [43]. At various time points (0, 30, 60, 240, and 480 min), the reactions were quenched with 2 µl 50% TFA and 20 µl 100% ACN. Water was added to reach a final volume of 220 µl. Samples were centrifuged and kept on ice. Full-length peptides were quantified by using a C12 column (C12 RP 250 × 4.60 mm column, Phenomenex) on a JASCO HPLC system and applying a gradient of 20–90% ACN in 0.1% TFA for 30 min. Peptides were detected at 280 nm. A280 areas in chromatograms of the corresponding GAL-(1–15) and M89b full-length peptide peaks were used to determine the amount of peptide left after incubation with cerebrospinal fluid at the different time points. Peptide peaks were determined using JASCO-Borwin Chromatography software (v1.50).

[4] = cited from earlier work
Text: The use of natural galanin in clinical applications faces two serious limitations: lack of receptor specificity and in vivo susceptibility to rapid peptidase-mediated breakdown. […] Recently, a selective GAL2R agonist based on the sequence of spexin, a newly discovered natural peptide with affinity for GAL2R and ...

GAL2R = target: T1, GAL2R (Homo sapiens, UniProt O43603); set-up: expressed in transfected cells; host or cells: HEK293 Gqi cells, transient; plasmids from Young Seong (Korea University); conditions: cited from earlier work
T1 sequence (O43603 1-387): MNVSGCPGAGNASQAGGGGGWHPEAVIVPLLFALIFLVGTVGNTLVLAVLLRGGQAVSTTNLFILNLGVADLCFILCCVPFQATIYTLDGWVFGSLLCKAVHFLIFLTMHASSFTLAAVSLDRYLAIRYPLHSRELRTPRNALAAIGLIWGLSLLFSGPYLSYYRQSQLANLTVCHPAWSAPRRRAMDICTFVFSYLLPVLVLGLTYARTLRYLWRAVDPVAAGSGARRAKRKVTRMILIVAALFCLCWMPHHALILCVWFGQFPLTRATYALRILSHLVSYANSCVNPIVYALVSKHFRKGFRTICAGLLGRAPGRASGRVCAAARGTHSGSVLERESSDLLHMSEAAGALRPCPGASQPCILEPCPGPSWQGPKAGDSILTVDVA
Text: Since the discovery of the three GALRs, major effort has been directed at developing receptor-selective agonists and antagonists. These were based on substitution of certain amino acids in the galanin peptide sequence. While receptor selectivity was achieved to some degree, GAL(2–11) turned out to be a very selective non-GAL1R agonist.

[5] = tested on: non-fasted male Wistar rats; assay: Food intake and body weight after intranasal application of peptides; assay type: in vivo, rat
Description: For intranasal delivery, 1 mg of M89b was first dissolved in 566 µl 2,2,2-trifluorethanol, 566 µl 10% (2-hydroxypropyl)-ß-cyclodextrin (HBC), and 1 µl acetic acid and incubated at 60 °C for 20 min. Another 566 µl of 10% HBC were added. The peptide was then dried in a speed-vac, and the dried pellet was dissolved in 1132 µl water by vortexing and incubation at 60 °C. M871 and GALP were purchased from GL Biochem. M871 was dissolved in saline containing 10% HBC. GALP was dissolved in saline containing 5% α-cyclodextrin.
In vivo experiments involving intranasal treatment of rats and measurement of feeding behavior were performed at the Institute for Translational Medicine, University of Pécs, Pécs, Hungary. Experiments were approved by the National Ethical Council for Animal Research (permit number, BA 02/2000–11/2018). They were also in accord with the directives of the European Communities Council on the protection of animals used for scientific purposes (86/609/EEC, Directive 2010/63/EU of the European Parliament and of the Council).
Spontaneous food intake was measured in non-fasted male Wistar rats (3 months old) for 24 h following intranasal application of peptide solutions by an automated FeedScale System (Columbus, OH). Each group of animals (6–9 rats/group) was habituated to the individual chambers of the FeedScale System until daily food intake and changes in the body weight of the animals had normalized. This habituation, which lasted for a minimum of 2 weeks, allowed adaptation to the environment, to the powdered chow and to the feeder. This powdered form of chow prevented food hoarding. A special digital scale under the cages provided precise automated measurement and continuous recording of the amount of consumed food. During the measurement of the cumulative 24 h food intake, data were collected every 30 min.
Intranasal applications were performed at 06:00 PM at the onset of the active nighttime period of rats. First, the body weight of animals was recorded, and then they were intraperitoneally anesthetized with ketamine (52 mg/kg) and xylazine (9 mg/kg). For the intranasal application of peptides, rats were placed on their backs, and 25–30 µl of peptide solution was injected gently per nostril (total volume of 50–60 μl per rat depending on the administered peptides) using a 10-μl pipette. The following solutions were applied: M89b (25 nmol in 60 µl saline containing 10% HBC); GALP (17.5 nmol in 50 µl saline containing 5% α-cyclodextrin); M871 (219 nmol in 60 µl 10% HBC); and M89b + M871 (25 nmol M89b + 219 nmol M871 in 60 µl 10% HBC). […] At 24 h post-treatment, the body weight of the animals was measured.
Statistical analysis was performed with SPSS 11.0. […] Body weight data were analyzed by applying a one-way ANOVA with Tukey’s post hoc test. […]

[6] = intranasal administration with α-cyclodextrins; cited from earlier work
Text: For delivery of therapeutic peptides and proteins to the brain, the blood–brain barrier (BBB) is a major impediment. Intranasal delivery might provide a non-invasive means to bypass the BBB. Advantages of applying peptides via the nasal route, provided they do indeed reach the brain, include minimizing exposure to peripheral organs and tissues, thus reducing systemic side effects. […] Intranasal delivery of peptides may provide the ability to target specific re ...

Compound: CC(C)C[C@H](NC(=O)[C@H](CC(C)C)NC(=O)[C@H](Cc1ccc(O)cc1)NC(=O)CNC(=O)[C@H](C)NC(=O)[C@H](CO)NC(=O)[C@H](CC(N)=O)NC(=O)[C@H](CC(C)C)NC(=O)[C@@H](NC(=O)[C@H](Cc1c[nH]c2ccccc12)NC(=O)CN)[C@@H](C)O)C(=O)NCC(=O)N1CCC[C@H]1C(=O)N[C@@H](Cc1c[nH]cn1)C(=O)N[C@@H](C)C(N)=O [GAL-(1–15), reference compound]
- metabolised at 0.5 h, 10 µM ([1]; after 30 min, read-out: Peptide degraded in rat serum): 80%
- remaining at 1.5 h, 10 µM ([1]; after 90 min, read-out: Peptide detectable in rat serum): < 2%
- Degradation in brain plasma [2]: the whole amount of GAL-(1–15) was degraded
- remaining at 4 h, 143 µM [3]: < 4%

Compound: CC(C)C[C@H](NC(=O)CNC(=O)[C@H](CC(N)=O)NC(=O)[C@H](CCCCN)NC(=O)[C@H](CC(=O)O)NC(=O)[C@H](CO)NC(=O)[C@H](Cc1ccccc1)NC(=O)[C@H](CO)NC(=O)[C@H](CCCNC(=N)N)NC(=O)[C@H](Cc1cnc[nH]1)NC(=O)[C@H](CC(N)=O)NC(=O)CNC(=O)[C@@H](NC(=O)[C@H](C)NC(=O)[C@H](Cc1cnc[nH]1)NC(=O)[C@@H]1CCCN1C(=O)CNC(=O)[C@H](CC(C)C)NC(=O)[C@H](CC(C)C)NC(=O)[C@H](Cc1ccc(O)cc1)NC(=O)CNC(=O)[C@H](C)NC(=O)[C@H](CO)NC(=O)[C@H](CC(N)=O)NC(=O)[C@H](CC(C)C)NC(=O)[C@@H](NC(=O)[C@H](Cc1c[nH]c2ccccc12)NC(=O)CN)[C@@H](C)O)C(C)C)C(=O)N[C@H](C(=O)N[C@@H](CO)C(=O)O)[C@@H](C)O [galanin]
- In vivo half-life in plasma [4]: around 4 min

Compound: Ala5-galanin(2–11)
- Preference for GAL2R compared to both GAL1R and GAL3R (GAL2R): more than 375 fold

Compound: galanin-like peptide (APAHRGRGGWTLNSAGYLLGPVLHLPQMGDQDGKRETALEILDLWKAIDGLPYSHPPQPS; Galanin-like peptide; UniProt Q9UBC7 25-84, looked up) [GALP, reference compound]
- Reduction of 24-h food intake ([5]; intranasal 17.5 nmol in 50 µl saline with 5% α-cyclodextrin, vs vehicle, p = 0.038): 19%
- 24-h body weight change ([5]; intranasal 17.5 nmol in saline with 5% α-cyclodextrin, p = 0.0247 as printed): trend of reduction, but this change did not reach statistical significance
- Increase of uptake in all brain regions compared to GALP alone [6]: two- to threefold
